# In article PMC9340770 (Journal of Medicinal Chemistry, 2022):
# Read-outs that look alike come from different tables or passages of the source.
# Key:
# CYP3A4 = CYP3A4 (Homo sapiens, UniProt P08684); test: biochemical
# [1] = mouse, IV 3 mg/kg
# EDNRA = target: T1, EDNRA (Homo sapiens, UniProt P25101); test: Safetyscan Calcium Flux; assay type: cell-based
# T1 construct: purchased DiscoverX (Eurofins) Safetyscan Panel
# CAV1.2 = target: T2, CAV1.2 (Homo sapiens, UniProt Q13936); test: Safetyscan Ion Channel; assay type: cell-based; conditions: blocker mode, read-out: RC50 (IC50) CAV1.2 Blocker
# T2 construct: purchased DiscoverX (Eurofins)
# ADORA2A = target: T3, ADORA2A (Homo sapiens, UniProt P29274); test: Safetyscan Calcium Flux; assay type: cell-based
# T3 construct: purchased DiscoverX (Eurofins) Safetyscan Panel
# Rat PK (IV and PO) = assay type: in vivo, Sprague–Dawley rats
# Text: Table 9 PK Parameters for MRTX0902 (32) across Species | column: rat
# COX2 = target: T4, COX2 (Homo sapiens, UniProt P35354); test: Safetyscan Enzymatic; assay type: biochemical; conditions: read-out: RC50 (IC50) COX2 Inhibitor
# T4 construct: purchased DiscoverX (Eurofins)
# PDE3A = target: T5, PDE3A (Homo sapiens, UniProt Q14432); test: Safetyscan Enzymatic; assay type: biochemical; conditions: read-out: RC50 (IC50) PDE3A Inhibitor
# T5 construct: purchased DiscoverX (Eurofins)
# CCKAR = target: T6, CCKAR (Homo sapiens, UniProt P32238); test: Safetyscan Calcium Flux; assay type: cell-based
# T6 construct: purchased DiscoverX (Eurofins) Safetyscan Panel
# CNS mouse PK study = assay type: in vivo, female CD-1 mice; conditions: female, CD-1, mouse, CSF / free plasma, read-out: CSF:Cp,u (Kp,uu)
# Text: Table 10 CNS Mouse PK Profile of MRTX0902 (32) ^a | column: mean free plasma concn (Cp,u, nM); mean brain concn (ng/g); mean CSF concn (nM); CSF:Cp,u (Kp,uu)
# Dog PK (IV and PO) = assay type: in vivo, beagle dogs
# Text: Table 9 PK Parameters for MRTX0902 (32) across Species | column: dog
# GR = target: T7, GR (Homo sapiens, UniProt P04150); test: Safetyscan NHR Protein Interaction; assay type: cell-based
# T7 construct: purchased DiscoverX (Eurofins)
# ADRB2 = target: T8, ADRB2 (Homo sapiens, UniProt P07550); test: Safetyscan cAMP; assay type: cell-based
# T8 construct: purchased DiscoverX (Eurofins) Safetyscan Panel
# LCK = target: T9, LCK (Homo sapiens, UniProt P06239); test: Safetyscan Kinases Binding; conditions: read-out: RC50 (IC50) LCK Inhibitor
# T9 construct: purchased DiscoverX (Eurofins)
# ADRB1 = target: T10, ADRB1 (Homo sapiens, UniProt P08588); test: Safetyscan cAMP; assay type: cell-based
# T10 construct: purchased DiscoverX (Eurofins) Safetyscan Panel
# ROCK1 = target: T11, ROCK1 (Homo sapiens, UniProt Q13464); test: Safetyscan Kinases Binding; conditions: read-out: RC50 (IC50) ROCK1 Inhibitor
# T11 construct: purchased DiscoverX (Eurofins)
# PDE4D2 = target: T12, PDE4D2 (Homo sapiens, UniProt Q08499); test: Safetyscan Enzymatic; assay type: biochemical; conditions: read-out: RC50 (IC50) PDE4D2 Inhibitor
# T12 construct: purchased DiscoverX (Eurofins)
# [2] = PK across species (ranges); assay type: in vivo, CD-1 mice, Sprague–Dawley rats, and beagle dogs; conditions: range across mice, rats, dogs
# in vivo = conditions: CD-1, mouse, po, 30 mg/kg
# AVPR1A = target: T13, AVPR1A (Homo sapiens, UniProt P37288); test: Safetyscan Calcium Flux; assay type: cell-based
# T13 construct: purchased DiscoverX (Eurofins) Safetyscan Panel
# [3] = CD-1, Sprague-Dawley, beagle, mouse, rat, dog, in vivo, IV administration
# T7 sequence (P04150 whole entry): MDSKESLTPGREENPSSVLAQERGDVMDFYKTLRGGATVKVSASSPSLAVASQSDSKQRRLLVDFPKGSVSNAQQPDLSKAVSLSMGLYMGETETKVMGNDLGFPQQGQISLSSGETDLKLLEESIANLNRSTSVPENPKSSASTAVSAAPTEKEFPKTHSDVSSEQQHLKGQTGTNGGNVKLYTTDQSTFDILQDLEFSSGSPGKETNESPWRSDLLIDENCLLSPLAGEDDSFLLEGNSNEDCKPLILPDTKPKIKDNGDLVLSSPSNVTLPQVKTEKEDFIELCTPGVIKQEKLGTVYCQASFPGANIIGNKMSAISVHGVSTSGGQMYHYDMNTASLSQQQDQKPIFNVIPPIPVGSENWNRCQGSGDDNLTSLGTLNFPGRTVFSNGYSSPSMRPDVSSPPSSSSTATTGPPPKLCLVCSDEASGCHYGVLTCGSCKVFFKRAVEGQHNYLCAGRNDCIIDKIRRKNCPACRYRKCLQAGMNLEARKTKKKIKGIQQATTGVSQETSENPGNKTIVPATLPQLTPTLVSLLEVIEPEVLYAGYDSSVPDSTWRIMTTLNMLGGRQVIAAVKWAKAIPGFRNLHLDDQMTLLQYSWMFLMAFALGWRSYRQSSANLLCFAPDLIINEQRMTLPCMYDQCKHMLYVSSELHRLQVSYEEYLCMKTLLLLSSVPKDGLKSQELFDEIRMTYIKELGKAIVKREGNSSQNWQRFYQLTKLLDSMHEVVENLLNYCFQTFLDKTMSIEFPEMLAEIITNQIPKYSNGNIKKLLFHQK
# T13 sequence (P37288 whole entry): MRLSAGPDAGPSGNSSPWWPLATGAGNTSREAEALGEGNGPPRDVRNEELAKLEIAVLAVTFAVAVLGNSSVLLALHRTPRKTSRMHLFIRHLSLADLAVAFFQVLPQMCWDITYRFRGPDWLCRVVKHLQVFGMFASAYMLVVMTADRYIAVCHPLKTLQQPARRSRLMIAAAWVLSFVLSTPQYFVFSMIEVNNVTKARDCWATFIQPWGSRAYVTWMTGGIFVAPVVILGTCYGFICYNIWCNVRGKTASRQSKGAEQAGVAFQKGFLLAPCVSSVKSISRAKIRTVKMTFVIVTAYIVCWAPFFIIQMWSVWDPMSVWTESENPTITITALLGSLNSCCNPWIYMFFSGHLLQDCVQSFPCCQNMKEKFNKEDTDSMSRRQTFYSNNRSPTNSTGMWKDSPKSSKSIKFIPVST
# T8 sequence (P07550 whole entry): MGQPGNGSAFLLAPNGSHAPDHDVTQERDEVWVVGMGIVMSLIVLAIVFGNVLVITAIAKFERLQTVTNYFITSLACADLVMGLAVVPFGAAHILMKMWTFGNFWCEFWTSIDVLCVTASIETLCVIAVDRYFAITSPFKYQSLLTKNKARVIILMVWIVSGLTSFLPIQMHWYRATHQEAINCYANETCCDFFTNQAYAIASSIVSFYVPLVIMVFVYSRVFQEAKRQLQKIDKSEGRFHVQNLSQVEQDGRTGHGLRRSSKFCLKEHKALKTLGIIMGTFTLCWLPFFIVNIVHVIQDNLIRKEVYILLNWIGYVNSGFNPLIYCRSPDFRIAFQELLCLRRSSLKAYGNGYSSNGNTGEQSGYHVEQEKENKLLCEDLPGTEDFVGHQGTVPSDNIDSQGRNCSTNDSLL
# T1 sequence (P25101 21-427): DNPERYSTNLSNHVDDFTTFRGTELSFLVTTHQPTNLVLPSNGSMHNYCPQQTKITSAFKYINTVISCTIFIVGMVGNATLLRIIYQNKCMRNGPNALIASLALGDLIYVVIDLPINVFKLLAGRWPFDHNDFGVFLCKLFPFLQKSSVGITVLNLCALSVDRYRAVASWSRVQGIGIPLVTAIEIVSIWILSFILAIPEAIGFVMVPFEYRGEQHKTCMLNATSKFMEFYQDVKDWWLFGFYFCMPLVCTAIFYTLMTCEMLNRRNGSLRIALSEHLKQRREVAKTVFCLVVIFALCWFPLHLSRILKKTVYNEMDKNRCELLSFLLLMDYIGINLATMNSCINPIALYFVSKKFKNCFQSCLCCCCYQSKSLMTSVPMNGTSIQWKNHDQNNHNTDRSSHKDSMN
# T3 sequence (P29274 whole entry): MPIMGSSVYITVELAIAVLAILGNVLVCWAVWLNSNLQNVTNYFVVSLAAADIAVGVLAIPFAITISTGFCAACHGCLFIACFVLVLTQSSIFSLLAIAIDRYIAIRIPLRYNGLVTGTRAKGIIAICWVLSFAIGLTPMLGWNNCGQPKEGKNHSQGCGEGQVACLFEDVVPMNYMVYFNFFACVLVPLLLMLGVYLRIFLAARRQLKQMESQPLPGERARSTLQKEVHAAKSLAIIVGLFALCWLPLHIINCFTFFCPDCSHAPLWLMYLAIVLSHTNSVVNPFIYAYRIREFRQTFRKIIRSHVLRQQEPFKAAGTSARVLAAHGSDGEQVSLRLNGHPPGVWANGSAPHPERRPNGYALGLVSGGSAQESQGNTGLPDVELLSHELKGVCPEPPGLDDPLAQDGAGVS
# T6 sequence (P32238 whole entry): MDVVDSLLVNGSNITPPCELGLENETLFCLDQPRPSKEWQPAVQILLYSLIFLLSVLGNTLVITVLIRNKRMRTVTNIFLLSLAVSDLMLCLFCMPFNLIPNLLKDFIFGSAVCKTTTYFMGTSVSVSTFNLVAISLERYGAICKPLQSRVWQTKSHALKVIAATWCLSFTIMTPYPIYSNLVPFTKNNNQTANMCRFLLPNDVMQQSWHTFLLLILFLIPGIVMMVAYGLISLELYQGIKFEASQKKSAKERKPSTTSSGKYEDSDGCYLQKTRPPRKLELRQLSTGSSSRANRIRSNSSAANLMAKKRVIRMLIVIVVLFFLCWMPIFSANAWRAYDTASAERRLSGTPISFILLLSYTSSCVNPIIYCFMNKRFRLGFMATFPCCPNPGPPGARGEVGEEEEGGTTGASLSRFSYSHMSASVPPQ
# T10 sequence (P08588 whole entry): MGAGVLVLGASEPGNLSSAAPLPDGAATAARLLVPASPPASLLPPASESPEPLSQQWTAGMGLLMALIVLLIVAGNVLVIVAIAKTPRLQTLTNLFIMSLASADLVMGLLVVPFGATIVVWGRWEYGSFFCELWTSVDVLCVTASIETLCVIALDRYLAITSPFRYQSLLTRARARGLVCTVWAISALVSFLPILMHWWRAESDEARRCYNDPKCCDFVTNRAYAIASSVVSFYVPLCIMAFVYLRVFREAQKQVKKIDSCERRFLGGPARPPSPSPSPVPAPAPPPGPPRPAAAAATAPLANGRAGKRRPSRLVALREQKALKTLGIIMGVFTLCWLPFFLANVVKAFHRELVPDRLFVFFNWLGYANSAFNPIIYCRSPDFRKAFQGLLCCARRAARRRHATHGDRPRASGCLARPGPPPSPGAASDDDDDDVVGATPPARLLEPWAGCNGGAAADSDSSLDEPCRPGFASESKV
# T9 sequence (P06239 whole entry): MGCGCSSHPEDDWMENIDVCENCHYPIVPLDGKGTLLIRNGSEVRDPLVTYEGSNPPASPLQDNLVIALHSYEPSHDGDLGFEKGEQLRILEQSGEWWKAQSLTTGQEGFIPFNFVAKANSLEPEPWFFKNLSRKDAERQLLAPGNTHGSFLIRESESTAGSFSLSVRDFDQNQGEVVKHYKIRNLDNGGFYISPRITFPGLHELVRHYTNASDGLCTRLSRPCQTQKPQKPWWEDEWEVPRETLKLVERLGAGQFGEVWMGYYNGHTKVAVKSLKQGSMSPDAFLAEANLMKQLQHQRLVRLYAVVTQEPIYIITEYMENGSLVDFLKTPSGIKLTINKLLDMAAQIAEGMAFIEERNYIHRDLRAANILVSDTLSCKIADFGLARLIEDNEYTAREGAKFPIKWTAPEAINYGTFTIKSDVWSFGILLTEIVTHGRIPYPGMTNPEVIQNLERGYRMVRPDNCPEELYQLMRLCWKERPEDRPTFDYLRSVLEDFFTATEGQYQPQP
# T12 sequence (Q08499 303-809 limits assumed): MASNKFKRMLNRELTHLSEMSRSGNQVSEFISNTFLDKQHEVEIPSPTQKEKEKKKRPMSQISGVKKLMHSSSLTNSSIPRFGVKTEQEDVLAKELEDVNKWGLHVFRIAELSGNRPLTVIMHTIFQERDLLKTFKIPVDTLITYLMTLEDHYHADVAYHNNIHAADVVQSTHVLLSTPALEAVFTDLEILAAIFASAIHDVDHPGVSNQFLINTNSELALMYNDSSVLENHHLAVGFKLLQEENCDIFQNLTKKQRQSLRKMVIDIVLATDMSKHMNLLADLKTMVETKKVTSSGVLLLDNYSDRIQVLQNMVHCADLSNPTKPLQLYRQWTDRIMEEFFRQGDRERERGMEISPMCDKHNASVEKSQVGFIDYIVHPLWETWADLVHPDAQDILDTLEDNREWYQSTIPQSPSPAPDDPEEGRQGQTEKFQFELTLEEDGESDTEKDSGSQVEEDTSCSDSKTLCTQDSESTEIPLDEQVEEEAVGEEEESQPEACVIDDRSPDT
# Chain of CYP3A4 (P08684 whole entry): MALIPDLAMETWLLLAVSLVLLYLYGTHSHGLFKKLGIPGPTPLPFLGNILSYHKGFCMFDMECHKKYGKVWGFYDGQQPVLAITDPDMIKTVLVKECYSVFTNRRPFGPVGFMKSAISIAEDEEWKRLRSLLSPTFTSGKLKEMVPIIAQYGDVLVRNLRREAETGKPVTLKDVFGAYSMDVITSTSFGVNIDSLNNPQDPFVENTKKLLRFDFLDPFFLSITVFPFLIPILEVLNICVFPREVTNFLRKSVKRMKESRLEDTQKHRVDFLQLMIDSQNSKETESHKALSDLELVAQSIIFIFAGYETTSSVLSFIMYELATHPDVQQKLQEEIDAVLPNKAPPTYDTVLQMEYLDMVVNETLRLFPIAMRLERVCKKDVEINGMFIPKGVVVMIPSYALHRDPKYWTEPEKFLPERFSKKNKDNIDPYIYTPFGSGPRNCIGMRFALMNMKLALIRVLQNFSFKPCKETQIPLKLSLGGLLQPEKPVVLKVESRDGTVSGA
compound,measurement,setting,value
"Cc1c(C#N)cccc1[C@@H](C)Nc1nnc(C)c2cnc(N3CCOCC3)cc12 [Compound 32, (R)-2-Methyl-3-(1-((4-methyl-7-morpholinopyrido[3,4-d]pyridazin-1-yl)amino)ethyl)benzonitrile]",IC50,CYP3A4,3.6 µM
same,Cl,[1],4.4 mL/min/kg
same,IV t1/2,[1],78 min
same,"Vd,ss",[1],0.28 L/kg
same,EC50,"EDNRA; agonist mode, read-out: RC50 (EC50) EDNRA Agonist",> 10 µM
same,IC50,"EDNRA; antagonist mode, read-out: RC50 (IC50) EDNRA Antagonist",> 10 µM
same,IC50,CAV1.2,> 10 µM
same,EC50,"ADORA2A; agonist mode, read-out: RC50 (EC50) ADORA2A Agonist",> 10 µM
same,IC50,"ADORA2A; antagonist mode, read-out: RC50 (IC50) ADORA2A Antagonist",> 10 µM
same,IV t1/2,Rat PK (IV and PO); IV 1 mg/kg,37.2 min
same,"Vd,ss",Rat PK (IV and PO); IV 1 mg/kg,0.28 L/kg
same,clearance,"Rat PK (IV and PO); Sprague-Dawley, in vivo, IV 1 mg/kg",14.6 mL/min/kg
same,bioavailability,"Rat PK (IV and PO); Sprague-Dawley, in vivo, IV/PO 1/10 mg/kg, PO suspension in 0.5% MC (4000 cps)/0.2% Tween80 in water",83%
same,IC50,COX2,> 10 µM
same,IC50,PDE3A,> 10 µM
same,EC50,"CCKAR; agonist mode, read-out: RC50 (EC50) CCKAR Agonist",> 10 µM
same,IC50,"CCKAR; antagonist mode, read-out: RC50 (IC50) CCKAR Antagonist",> 10 µM
same,Kp uu at 1 h,CNS mouse PK study; 1 h after PO 100 mg/kg single dose,1.56
same,Kp uu at 8 h,CNS mouse PK study; 8 h after PO 100 mg/kg single dose,1.03
same,F,"Dog PK (IV and PO); IV/PO 2/10 mg/kg, PO suspension in 0.5% MC (4000 cps)/0.2% Tween80 in water",38%
same,clearance,"Dog PK (IV and PO); beagle, in vivo, IV 2 mg/kg",7.6 mL/min/kg
same,half-life,"Dog PK (IV and PO); beagle, in vivo, IV 2 mg/kg, read-out: IV t1/2 (converted)",51.6 min
same,Vd,"Dog PK (IV and PO); beagle, in vivo, IV 2 mg/kg, read-out: Vd,ss",0.48 L/kg
same,EC50,"GR; agonist mode, read-out: RC50 (EC50) GR Agonist",> 10 µM
same,IC50,"GR; antagonist mode, read-out: RC50 (IC50) GR Antagonist",> 10 µM
same,EC50,"ADRB2; agonist mode, read-out: RC50 (EC50) ADRB2 Agonist",> 10 µM
same,IC50,"ADRB2; antagonist mode, read-out: RC50 (IC50) ADRB2 Antagonist",> 10 µM
same,IC50,LCK,> 10 µM
same,EC50,"ADRB1; agonist mode, read-out: RC50 (EC50) ADRB1 Agonist",> 10 µM
same,IC50,"ADRB1; antagonist mode, read-out: RC50 (IC50) ADRB1 Antagonist",> 10 µM
same,IC50,ROCK1,> 10 µM
same,IC50,PDE4D2,> 10 µM
same,clearance,[2]; [3],4.4 to 14.6 mL/min/kg
same,half-life,[2]; [3],37.2 to 78 min
same,Vd,"[2]; CD-1, Sprague-Dawley, beagle, mouse, rat, dog, in vivo, IV administration, read-out: volume of distribution",0.28 to 0.48 L/kg
same,bioavailability,[2]; PO suspension in 0.5% MC (4000 cps)/0.2% Tween80 in water,38–83 %F
same,bioavailability,in vivo,69%
same,EC50,"AVPR1A; agonist mode, read-out: RC50 (EC50) AVPR1A Agonist",> 10 µM
same,IC50,"AVPR1A; antagonist mode, read-out: RC50 (IC50) AVPR1A Antagonist",> 10 µM
